# From patent US20230141600A1, “IMIDAZOPYRAZINE DERIVATIVES” (priority 2020, published 2023)
# Where a name gives a salt, the structure may show the parent alone.
# System: Acinetobacter baumannii ATCC17978
# Test: 90% growth inhibitory concentration (IC90) determination, antimicrobial susceptibility testing
# Assay type: cell-based
# Details: ATCC17978, 90% growth inhibition, Iso-Sensitest broth, OD 600 nm over 16 h, 35±2° C., read-out: ATCC 17978 IC90
# Description: Antimicrobial Susceptibility Testing:
# 90% Growth Inhibitory Concentration (IC90) Determination
# The in vitro antimicrobial activity of the compounds was determined according to the following procedure:
# The assay used a 10-points Iso-Sensitest broth medium to measure quantitatively the in vitro activity of the compounds against Acinetobacter baumannii ATCC17961 and ATCC17978.
# Stock compounds in DMSO were serially twofold diluted (e.g. range from 50 to 0.097 μM final concentration) in 384 wells microtiter plates and inoculated with 49 μl the bacterial suspension in Iso-Sensitest medium to have a final cell concentration of ˜5×10^(5) CFU/ml in a final volume/well of 50 ul/well. Microtiter plates were incubated at 35±2° C.
# Bacterial cell growth was determined with the measurement of optical density at λ=600 nm each minutes over a time course of 16 h. Growth inhibition was calculated during the logarithmic growth of the bacterial cells with determination of the concentration inhibiting 50% (IC50) and 90% (IC90) of the growth.
# Table 1 provides the 90% growth inhibitory concentrations (IC90) in micromoles per liter of the compounds of present invention obtained against the strain Acinetobacter baumannii ATCC17978.
row,IC90 [nM],SMILES
1,156,"C[N+](C)(C)CCN1CCN(C(=O)c2ccc(Nc3nccn4c(-c5ccc(OCC#N)c(F)c5F)cnc34)cc2Cl)CC1 [Example 26, 2-[4-[2-chloro-4-[[3-[4-(cyanomethoxy)-2,3-difluorophenyl]imidazo[1,2-a]pyrazin-8-yl]amino]benzoyl]piperazin-1-yl]ethyl-trimethylazanium Iodide]"
2,249,"COc1ccc(-c2cnc3c(Nc4ccc(C(=O)N5CCC(C(=O)NCC[N+](C)(C)C)CC5)c(C)c4)nccn23)cc1F [Example 27, 2-(1-(4-((3-(3-Fluoro-4-methoxyphenyl)imidazo[1,2-a]pyrazin-8-yl)amino)-2-methylbenzoyl)piperidine-4-carboxamido)-N,N,N-trimethylethanaminium Formate]"
3,605,"CCc1cc(Nc2nccn3c(-c4ccc(Cl)c(F)c4F)cnc23)ccc1C(=O)NCCC[N+](C)(C)C [Example 28, 3-(4-((3-(4-Chloro-2,3-difluorophenyl)imidazo[1,2-a]pyrazin-8-yl)amino)-2-ethylbenzamido)-N,N,N-trimethylpropan-1-aminium Formate]"
4,293,"Cc1cc(Nc2nccn3c(-c4ccc(OC(F)F)cc4)cnc23)ccc1C(=O)N1CCC(CC[N+](C)(C)C)CC1 [Example 29, 2-(1-(4-((3-(4-(Difluoromethoxy)phenyl)imidazo[1,2-a]pyrazin-8-yl)amino)-2-methylbenzoyl)piperidin-4-yl)-N,N,N-trimethylethanaminium Formate]"
5,497,"Cc1cc(Nc2nccn3c(-c4ccc(OC(F)F)cc4)cnc23)ccc1C(=O)N1CCN(C(=O)N2CC[N+](C)(C)CC2)CC1 [Example 30, [4-[[3-[4-(Difluoromethoxy)phenyl]imidazo[1,2-a]pyrazin-8-yl]amino]-2-methyl-phenyl]-[4-(4,4-dimethylpiperazin-4-ium-1-carbonyl)piperazin-1-yl]methanone Formate]"
6,120,"COc1ccc(-c2cnc3c(Nc4ccc(C(=O)N5CCN(C(=O)C[N+](C)(C)C)CC5)c(Cl)c4)nccn23)cc1F [Example 31, [2-[4-[2-Chloro-4-[[3-(3-fluoro-4-methoxyphenyl)imidazo[1,2-a]pyrazin-8-yl]amino]benzoyl]piperazin-1-yl]-2-oxoethyl]-trimethylazanium Formate]"
7,307,"COc1ccc(-c2cnc3c(Nc4ccc(C(=O)N5CCN(C(=O)C[N+](C)(C)C)CC5)c(C)c4)nccn23)cc1F [Example 32, 2-(4-(4-((3-(3-Fluoro-4-methoxyphenyl)imidazo[1,2-a]pyrazin-8-yl)amino)-2-methylbenzoyl)piperazin-1-yl)-N,N,N-trimethyl-2-oxoethan-1-aminium Iodide]"
8,996,"Cc1cc(Nc2nccn3c(-c4ccc(OC(F)F)cc4)cnc23)ccc1C(=O)N1CCN(C(=O)N2CCOC(C[N+](C)(C)C)C2)CC1 (stereo not shown) [Example 33, [4-[4-[4-[[3-[4-(Difluoromethoxy)phenyl]imidazo[1,2-a]pyrazin-8-yl]amino]-2-methyl-benzoyl]piperazine-1-carbonyl]morpholin-2-yl]methyl-trimethyl-ammonium Formate]"
9,246,"CN(CCN1CC[N+](C)(C)CC1)C(=O)c1ccc(Nc2nccn3c(-c4ccc(OCC#N)c(F)c4F)cnc23)cc1Cl [Example 34, 2-Chloro-4-[[3-[4-(cyanomethoxy)-2,3-difluoro-phenyl]imidazo[1,2-a]pyrazin-8-yl]amino]-N-[2-(4,4-dimethylpiperazin-4-ium-1-yl)ethyl]-N-methyl-benzamide iodide]"
10,1050,"COc1ccc(-c2cnc3c(Nc4ccc(C(=O)N(C)CCOCC[N+](C)(C)C)c(C)c4)nccn23)cc1F [Example 35, 2-(2-(4-((3-(3-Fluoro-4-methoxyphenyl)imidazo[1,2-a]pyrazin-8-yl)amino)-N,2-dimethylbenzamido)ethoxy)-N,N,N-trimethylethan-1-aminium Chloride]"
11,431,"Cc1cc(Nc2nccn3c(-c4ccc(OC(F)F)cc4)cnc23)ccc1C(=O)N1CCN(C(=O)NCC[N+](C)(C)C)CC1 [Example 36, 2-[[4-[4-[[3-[4-(Difluoromethoxy)phenyl]imidazo[1,2-a]pyrazin-8-yl]amino]-2-methyl-benzoyl]piperazine-1-carbonyl]amino]ethyl-trimethyl-ammonium Formate]"
12,213,"CN(CCC1CC[N+](C)(C)CC1)C(=O)c1ccc(Nc2nccn3c(-c4ccc(OCC#N)c(F)c4F)cnc23)cc1Cl [Example 38, 2-Chloro-4-[[3-[4-(cyanomethoxy)-2,3-difluoro-phenyl]imidazo[1,2-a]pyrazin-8-yl]amino]-N-[2-(1,1-dimethylpiperidin-1-ium-4-yl)ethyl]-N-methyl-benzamide 2,2,2-trifluoroacetate]"
13,2380,"Cc1cc(Nc2nccn3c(-c4ccc(OC(F)F)cc4)cnc23)ccc1C(=O)N(C)CCC1CCN(C(=O)CC(O)C[N+](C)(C)C)CC1 (stereo not shown) [Example 39, 4-(4-(2-(4-((3-(4-(Difluoromethoxy)phenyl)imidazo[1,2-a]pyrazin-8-yl)amino)-N,2-dimethylbenzamido)ethyl)piperidin-1-yl)-2-hydroxy-N,N,N-trimethyl-4-oxobutan-1-aminium Formate]"
14,165,"CCc1cc(Nc2nccn3c(-c4ccc(OC)c(F)c4F)cnc23)ccc1C(=O)NCCOCC[N+](CC)(CC)CC [Example 40, 2-(2-(4-((3-(2,3-Difluoro-4-methoxyphenyl)imidazo[1,2-a]pyrazin-8-yl)amino)-2-ethylbenzamido)ethoxy)-N,N,N-triethylethan-1-aminium Formate]"
15,132,"CCc1cc(Nc2nccn3c(-c4ccc(OCC#N)c(F)c4F)cnc23)ccc1C(=O)NCCOCC[N+](C)(C)C [Example 41, 2-[2-[[4-[[3-[4-(Cyanomethoxy)-2,3-difluoro-phenyl]imidazo[1,2-a]pyrazin-8-yl]amino]-2-ethyl-benzoyl]amino]ethoxy]ethyl-trimethyl-ammonium Iodide]"
16,414,"Cc1cc(Nc2nccn3c(-c4ccc(OC(F)F)cc4)cnc23)ccc1C(=O)N1CCN(C(=O)C[N+](C)(C)C)CC1 [Example 42, [2-[4-[4-[[3-[4-(Difluoromethoxy)phenyl]imidazo[1,2-a]pyrazin-8-yl]amino]-2-methyl-benzoyl]piperazin-1-yl]-2-oxo-ethyl]-trimethyl-ammonium Chloride]"
17,148,"COc1ccc(-c2cnc3c(Nc4ccc(C(=O)NCCOCC[N+](C)(C)C)c(Br)c4)nccn23)c(F)c1F [Example 44, 2-[2-[[2-bromo-4-[[3-(2,3-difluoro-4-methoxy-phenyl)imidazo[1,2-a]pyrazin-8-yl]amino]benzoyl]amino]ethoxy]ethyl-trimethyl-ammonium 2,2,2-trifluoroacetate]"
18,321,"CCC[N+](CCC)(CCC)CCOCCNC(=O)c1ccc(Nc2nccn3c(-c4ccc(OCC#N)c(F)c4F)cnc23)cc1Cl [Example 45, 2-[2-[[2-Chloro-4-[[3-[4-(cyanomethoxy)-2,3-difluoro-phenyl]imidazo[1,2-a]pyrazin-8-yl]amino]benzoyl]amino]ethoxy]ethyl-tripropyl-ammonium Iodide]"

# Same assay, conditions: ATCC17978, 16 h, read-out: ATCC 17978 IC90
row,SMILES,IC90 [nM]
1,"COc1ccc(-c2cnc3c(Nc4ccc(C(=O)N5CC[C@@H](C(=O)NCC[N+](C)(C)C)[C@H](O)C5)c(C)c4)nccn23)cc1F [Example 37, 2-[[(3S,4R)-1-[4-[[3-(3-fluoro-4-methoxy-phenyl)imidazo[1,2-a]pyrazin-8-yl]amino]-2-methyl-benzoyl]-3-hydroxy-piperidine-4-carbonyl]amino]ethyl-trimethyl-ammonium Formate]",4770
